These results are taken from patent US7932270B2 (Cytokinetics, Inc., priority 2006, dated 2011).

The experiment concerns the target T1, chicken gizzard smooth muscle myosin subfragment-1 chemically crosslinked to cardiac or skeletal actin (Gallus gallus, UniProt P10587).
T1 construct: chicken gizzard smooth muscle myosin subfragment-1; from tissue; host or cells: chicken gizzard
The experiment is described as follows: Smooth muscle myosin ATPase dose response assay (pyruvate kinase/horseradish peroxidase/pyruvate oxidase-coupled, amplex red fluorescence). In kind it is biochemical. The settings on record: read-out: IC50 Arithmetic Mean. The gist of the method:
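Chicken gizzard myosin S1 crosslinked to cardiac or skeletal actin, titrated to a set hydrolysis rate; 0.15 mM ATP, 12 mM PIPES pH 7.00, 100 mM KCl, 2 mM MgCl2. Pyruvate kinase/pyruvate oxidase/HRP coupling with amplex red fluorescence; IC50 from 4-parameter fit.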

T1 sequence (P02607 2-151): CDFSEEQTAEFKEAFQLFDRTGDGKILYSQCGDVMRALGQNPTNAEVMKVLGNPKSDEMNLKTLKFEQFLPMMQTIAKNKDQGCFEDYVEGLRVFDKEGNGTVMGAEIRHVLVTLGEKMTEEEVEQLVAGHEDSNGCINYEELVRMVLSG
T1 sequence (P10587 84-789): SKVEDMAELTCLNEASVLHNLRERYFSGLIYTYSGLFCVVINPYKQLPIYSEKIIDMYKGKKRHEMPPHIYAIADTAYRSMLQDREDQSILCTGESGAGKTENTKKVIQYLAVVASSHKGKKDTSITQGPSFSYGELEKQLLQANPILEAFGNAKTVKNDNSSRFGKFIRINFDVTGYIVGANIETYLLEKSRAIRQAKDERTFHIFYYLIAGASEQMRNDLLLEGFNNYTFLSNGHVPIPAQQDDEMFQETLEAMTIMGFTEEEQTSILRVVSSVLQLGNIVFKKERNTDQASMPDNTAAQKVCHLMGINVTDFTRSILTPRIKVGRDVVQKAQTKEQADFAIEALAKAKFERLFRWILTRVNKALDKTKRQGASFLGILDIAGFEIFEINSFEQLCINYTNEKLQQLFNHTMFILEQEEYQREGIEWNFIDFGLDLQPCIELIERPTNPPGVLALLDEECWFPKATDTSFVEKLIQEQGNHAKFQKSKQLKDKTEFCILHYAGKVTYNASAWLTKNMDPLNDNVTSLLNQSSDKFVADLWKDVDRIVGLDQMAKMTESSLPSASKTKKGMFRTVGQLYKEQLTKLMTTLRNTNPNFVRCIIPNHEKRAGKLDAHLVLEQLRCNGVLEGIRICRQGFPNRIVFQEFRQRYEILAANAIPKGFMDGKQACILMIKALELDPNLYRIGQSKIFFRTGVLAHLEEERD

For the compound `N#Cc1cccc(F)c1-c1ccc(C(=O)NCc2cccnc2)c(NCCc2cccc(F)c2)n1` [(6-(2-cyano-6-fluorophenyl)-2-{[2-(3-fluorophenyl)ethyl]amino}(3-pyridyl))-N-(3-pyridylmethyl)carboxamide], the IC50 is 0.086 µM.
As for `N#Cc1ccccc1CCNc1nc(-c2ccccc2C#N)ccc1C(=O)NCc1cccnc1` [(6-(2-cyanophenyl)-2-{[2-(2-cyanophenyl)ethyl]amino}(3-pyridyl))-N-(3-pyridylmethyl)carboxamide], the IC50 was found to be 0.044 µM.
Turning to `N#Cc1ccccc1-c1ccc(C(=O)NCc2cccnc2)c(NCCc2ccccc2F)n1` [(6-(2-cyanophenyl)-2-{[2-(2-fluorophenyl)ethyl]amino}(3-pyridyl))-N-(3-pyridylmethyl)carboxamide], the IC50 was determined as 0.028 µM.
The result for `N#Cc1ccccc1-c1ccc(C(=O)NCc2cccnc2)c(NCCc2ccccc2O)n1` [(6-(2-cyanophenyl)-2-{[2-(2-hydroxyphenyl)ethyl]amino}(3-pyridyl))-N-(3-pyridylmethyl)carboxamide] reads 0.38 µM; that for `Cc1ccccc1CCNc1nc(-c2ccccc2C#N)ccc1C(=O)NCc1cccnc1` [(6-(2-cyanophenyl)-2-{[2-(2-methylphenyl)ethyl]amino}(3-pyridyl))-N-(3-pyridylmethyl)carboxamide], 0.076 µM.
The result for `N#Cc1ccccc1-c1ccc(C(=O)NCc2cccnc2)c(NCC(O)c2cccc(F)c2)n1` (stereo not drawn) [(6-(2-cyanophenyl)-2-{[2-(3-fluorophenyl)-2-hydroxyethyl]amino}(3-pyridyl))-N-(3-pyridylmethyl)carboxamide] reads 0.339 µM.
With `N#Cc1ccccc1-c1ccc(C(=O)NCc2ncco2)c(NCCc2cccc(F)c2)n1` [(6-(2-cyanophenyl)-2-{[2-(3-fluorophenyl)ethyl]amino}(3-pyridyl))-N-(1,3-oxazol-2-ylmethyl)carboxamide], the IC50 is 0.04 µM.
The same measure for `N#Cc1ccccc1-c1ccc(C(=O)NCCc2ccccn2)c(NCCc2cccc(F)c2)n1` [(6-(2-cyanophenyl)-2-{[2-(3-fluorophenyl)ethyl]amino}(3-pyridyl))-N-(2-(2-pyridyl)ethyl)carboxamide]: 0.291 µM; for `N#Cc1ccccc1-c1ccc(C(=O)NCCc2cccnc2)c(NCCc2cccc(F)c2)n1` [(6-(2-cyanophenyl)-2-{[2-(3-fluorophenyl)ethyl]amino}(3-pyridyl))-N-(2-(3-pyridyl)ethyl)carboxamide]: 0.15 µM; for `N#Cc1ccccc1-c1ccc(C(=O)NCCO)c(NCCc2cccc(F)c2)n1` [(6-(2-cyanophenyl)-2-{[2-(3-fluorophenyl)ethyl]amino}(3-pyridyl))-N-(2-hydroxyethyl)carboxamide]: 1.08 µM.
`COCCNC(=O)c1ccc(-c2ccccc2C#N)nc1NCCc1cccc(F)c1` [(6-(2-cyanophenyl)-2-{[2-(3-fluorophenyl)ethyl]amino}(3-pyridyl))-N-(2-methoxyethyl)carboxamide]: the IC50 turned out to be 0.238 µM.
On to `N#Cc1ccccc1-c1ccc(C(=O)NCCN2CCNCC2)c(NCCc2cccc(F)c2)n1` [(6-(2-cyanophenyl)-2-{[2-(3-fluorophenyl)ethyl]amino}(3-pyridyl))-N-(2-piperazinylethyl)carboxamide], for which the IC50 stood at 16.2 µM.
The result for `N#Cc1ccccc1-c1ccc(C(=O)NCCc2cnccn2)c(NCCc2cccc(F)c2)n1` [(6-(2-cyanophenyl)-2-{[2-(3-fluorophenyl)ethyl]amino}(3-pyridyl))-N-(2-pyrazin-2-ylethyl)carboxamide] reads 0.266 µM; that for `N#Cc1ccccc1-c1ccc(C(=O)NCc2ccccn2)c(NCCc2cccc(F)c2)n1` [(6-(2-cyanophenyl)-2-{[2-(3-fluorophenyl)ethyl]amino}(3-pyridyl))-N-(2-pyridylmethyl)carboxamide], 0.029 µM.
As to `N#Cc1ccccc1-c1ccc(C(=O)NCCN2CCC[C@H](NC(=O)OCc3ccccc3)C2=O)c(NCCc2cccc(F)c2)n1` [(6-(2-cyanophenyl)-2-{[2-(3-fluorophenyl)ethyl]amino}(3-pyridyl))-N-(2-{2-oxo-3-[(phenylmethoxy)carbonylamino]piperidyl}ethyl)carboxamide], the IC50 was determined as 11.8 µM.
As to `N#Cc1ccccc1-c1ccc(C(=O)NCCCO)c(NCCc2cccc(F)c2)n1` [(6-(2-cyanophenyl)-2-{[2-(3-fluorophenyl)ethyl]amino}(3-pyridyl))-N-(3-hydroxypropyl)carboxamide], the IC50 worked out at 0.318 µM.
The same measure for `COCCCNC(=O)c1ccc(-c2ccccc2C#N)nc1NCCc1cccc(F)c1` [(6-(2-cyanophenyl)-2-{[2-(3-fluorophenyl)ethyl]amino}(3-pyridyl))-N-(3-methoxypropyl)carboxamide]: 0.396 µM; for `N#Cc1ccccc1-c1ccc(C(=O)NCc2cccnc2)c(NCCc2cccc(F)c2)n1` [(6-(2-cyanophenyl)-2-{[2-(3-fluorophenyl)ethyl]amino}(3-pyridyl))-N-(3-pyridylmethyl)carboxamide]: 0.024 µM.
Regarding `N#Cc1ccccc1-c1ccc(C(=O)NCC2CCNCC2)c(NCCc2cccc(F)c2)n1` [(6-(2-cyanophenyl)-2-{[2-(3-fluorophenyl)ethyl]amino}(3-pyridyl))-N-(4-piperidylmethyl)carboxamide], the IC50 stood at 0.336 µM.
The same measure for `N#Cc1ccccc1-c1ccc(C(=O)NCC2CC2)c(NCCc2cccc(F)c2)n1` [(6-(2-cyanophenyl)-2-{[2-(3-fluorophenyl)ethyl]amino}(3-pyridyl))-N-(cyclopropylmethyl)carboxamide]: 0.136 µM.
The result for `N#Cc1ccccc1-c1ccc(C(=O)NCc2ccno2)c(NCCc2cccc(F)c2)n1` [(6-(2-cyanophenyl)-2-{[2-(3-fluorophenyl)ethyl]amino}(3-pyridyl))-N-(isoxazol-5-ylmethyl)carboxamide] reads 0.021 µM; that for `N#Cc1ccccc1-c1ccc(C(=O)NCc2cnccn2)c(NCCc2cccc(F)c2)n1` [(6-(2-cyanophenyl)-2-{[2-(3-fluorophenyl)ethyl]amino}(3-pyridyl))-N-(pyrazin-2-ylmethyl)carboxamide], 0.026 µM.
The same measure for `N#Cc1ccccc1-c1ccc(C(=O)NCc2cc[nH]n2)c(NCCc2cccc(F)c2)n1` [(6-(2-cyanophenyl)-2-{[2-(3-fluorophenyl)ethyl]amino}(3-pyridyl))-N-(pyrazol-3-ylmethyl)carboxamide]: 0.015 µM; for `N#Cc1ccccc1-c1ccc(C(=O)NCC2CCCN2)c(NCCc2cccc(F)c2)n1` (stereo not drawn) [(6-(2-cyanophenyl)-2-{[2-(3-fluorophenyl)ethyl]amino}(3-pyridyl))-N-(pyrrolidin-2-ylmethyl)carboxamide]: 0.439 µM; for `N#Cc1ccccc1-c1ccc(C(=O)NCC2CCNC2)c(NCCc2cccc(F)c2)n1` (stereo not drawn) [(6-(2-cyanophenyl)-2-{[2-(3-fluorophenyl)ethyl]amino}(3-pyridyl))-N-(pyrrolidin-3-ylmethyl)carboxamide]: 0.963 µM.
As for `COC(=O)NCCNC(=O)c1ccc(-c2ccccc2C#N)nc1NCCc1cccc(F)c1` [(6-(2-cyanophenyl)-2-{[2-(3-fluorophenyl)ethyl]amino}(3-pyridyl))-N-[2-(methoxycarbonylamino)ethyl]carboxamide], the IC50 was determined as 1.12 µM.
For the compound `CNCCNC(=O)c1ccc(-c2ccccc2C#N)nc1NCCc1cccc(F)c1` [(6-(2-cyanophenyl)-2-{[2-(3-fluorophenyl)ethyl]amino}(3-pyridyl))-N-[2-(methylamino)ethyl]carboxamide], the IC50 was determined as 4.46 µM.

The term IC50 denotes the concentration at which inhibition is half-maximal.
